This test relates to PC12 cells. In words: Dopamine release from PC12 cells after dipeptide addition (LC-MS/MS of supernatant). The note with it: 6 hours; for Change in dopamine concentration compared to the non-stimulated group / Dopamine concentration after stimulation, Mean ± Standard deviation / Percentage relative to non-stimulated group: 1 mM dipeptide; for Change in dopamine concentration compared to the non-stimulated group: Student's t-test, significance level 5%; for Dopamine concentration after stimulation, Mean ± Standard deviation: 3 wells; for Dopamine concentration after stimulation, Mean ± Standard deviation / Dopamine concentration after stimulation: 37° C., supernatant; for Percentage relative to non-stimulated group: dopamine concentration, non-stimulated group = 100; for Dopamine concentration after stimulation: individual wells, 1 mM dipeptide in medium. The test is classed as cell-based. The method, then:
PC12 cells were seeded in a 96-well plate at a cell count of 2×10^4 cells/well using DMEM containing 10% by volume of HS (Horse Serum), 10% by volume of FBS (Fetal Bovine Serum), 100 units/mL of penicillin and 100 μg/mL of streptomycin. The cells were cultured at 5% CO2 by volume and 37° C. The cells were cultured for 3 to 5 days to ensure that they were confluent, and then used for experiments.
The culture medium was removed from PC12 cells, which were washed twice with PBS (Phosphate Buffered Saline). The wells of the 96-well plate were divided into 5 groups: non-stimulated group (5 wells), WF administration group (3 wells), WH administration group (3 wells), WM administration group (3 wells) and WR administration group (3 wells). The WR administration group corresponds to Inventive Example, and the non-stimulated group, WF administration group, WH administration group and WM administration group correspond to Comparative Examples.
DMSO (Dimethyl Sulfoxide) was added to the same medium as the medium used to culture PC12 cells, thereby preparing a medium containing 1% by […] of DMSO. Dipeptide WF was added to the same medium as the medium used to culture PC12 cells, thereby preparing a medium containing 1 mM dipeptide WF. In the same way, a medium containing 1 mM dipeptide WH, a medium containing 1 mM dipeptide WM and a medium containing 1 mM dipeptide WR were prepared. The medium containing 1% by volume of DMSO (Dimethyl Sulfoxide) was added to the non-stimulated group, the medium containing 1 mM dipeptide WF was added to the WF administration group, the medium containing 1 mM dipeptide WH was added to the WH administration group, the medium containing 1 mM dipeptide WM was added to the WM administration group, and the medium containing 1 mM dipeptide WR was added to the WR administration group. These groups were incubated at 37° C. for 6 hours. After the incubation, supernatant of each well was collected.
Each supernatant was transferred onto ice. To each supernatant, 25 μL of 2M perchloric acid was added for protein removal, and after 10 minutes, 50 μL of 1M sodium acetate was added for neutralization. After 15 minutes, centrifugation was performed at 4° C. and 20000 G for 20 minutes. 100 μL of each supernatant was collected, and after added with 10 μL of 2 mM 3,4-dihydroxybenzylamine (DHBA) as an internal standard, it was passed through a chromatodisk to obtain a sample. The obtained sample was used for liquid chromatography-tandem mass spectrometry (LC-MS/MS).
LC-MS/MS was performed using a Triple TOF 6600+ system manufactured by SCIEX under the following measurement conditions. A calibration curve was prepared using pure products, and after correcting the peak area of dopamine with the peak area of the internal standard (DHBA), the dopamine concentration (nM) in each sample was calculated from the calibration curve. • Equipment: Triple TOF 6600+ System (SCIEX, Massachusetts, USA) • Column: Inertsil (registered trademark) ODS-4 (GL Sciences, Tokyo, Japan) • Eluent A: 0.1% aqueous solution of formic acid • Eluent B: 0.1% methanol solution of formic acid • Gradient conditions: As listed in Table 1
Data are presented as mean±standard deviation. For statistical processing, Student's t-test was used for comparisons between the non-stimulated group and each administration group. The significance level was set at 5%.

“And” between values parts separate entries of the source, which are not always exact repeats. Equal values may be shown once. Peptide text beside a SMILES is read from it.

On to `N[C@@H](Cc1c[nH]c2ccccc12)C(=O)N[C@@H](Cc1ccccc1)C(=O)O` [WF, tryptophanylphenylalanine] (H-Trp-Phe-OH), for which the “Change in dopamine concentration compared to the non-stimulated group” value (from here on “Change … to the non-stimulated group”) is given as “did not exhibit such a significant increase in dopamine concentration”; the “Dopamine concentration after stimulation, Mean ± Standard deviation” value amounted to 19.56 ± 1.35 nM; the “Percentage relative to non-stimulated group” value amounted to 83.23%; the “Dopamine concentration after stimulation” value was 18.97 nM and 18.60 nM and 21.10 nM.

For `N[C@@H](Cc1c[nH]c2ccccc12)C(=O)N[C@@H](Cc1c[nH]cn1)C(=O)O` [WH, tryptophanylhistidine] (H-Trp-His-OH), the “Change … to the non-stimulated group” value is recorded as “did not exhibit such a significant increase in dopamine concentration”; the “Dopamine concentration after stimulation, Mean ± Standard deviation” value is reported as 22.15 ± 4.13 nM; the “Percentage relative to non-stimulated group” value stood at 94.26%; the “Dopamine concentration after stimulation” value was 26.89 nM and 19.36 nM and 20.20 nM.

`CSCC[C@H](NC(=O)[C@@H](N)Cc1c[nH]c2ccccc12)C(=O)O` [WM, tryptophanylmethionine] (H-Trp-Met-OH): the “Change … to the non-stimulated group” value is “did not exhibit such a significant increase in dopamine concentration”; the “Dopamine concentration after stimulation, Mean ± Standard deviation” value is recorded as 24.57 ± 7.88 nM; the “Percentage relative to non-stimulated group” value is recorded as 104.55%; the “Dopamine concentration after stimulation” value is 20.58 nM and 19.48 nM and 33.64 nM.

With `N=C(N)NCCC[C@H](NC(=O)[C@@H](N)Cc1c[nH]c2ccccc12)C(=O)O` [WR, tryptophanylarginine] (H-Trp-Arg-OH), the “Change … to the non-stimulated group” value is on record as “significant increase in dopamine concentration”; the “Dopamine concentration after stimulation, Mean ± Standard deviation” value was 36.24 ± 2.10 nM; the “Percentage relative to non-stimulated group” value came out at 154.23%; the “Dopamine concentration after stimulation” value is 38.47 nM and 34.30 nM and 35.95 nM.

The record behind these values is patent publication US20260263418A1, “AGENTS FOR ENHANCING DOPAMINE RELEASE, IMPROVING MOTOR CONTROL FUNCTION, IMPROVING MOTOR LEARNING FUNCTION AND IMPROVING ACTIVITY MOTIVATION” (MEIJI CO., LTD., priority 2023, published 2026).
